Test system: Mycobacterium tuberculosis
Assay: Antimycobacterial activity against Mycobacterium bovis BCG after 5 days by MTT assay
Type: functional, organism-based
Details: variant bovis BCG, 120 h

Structure (SMILES): Cc1ncnc2c1ccn2[C@@H]1O[C@H](CO)[C@@H](O)[C@H]1O
- IC50: 0.3 µM

Structure (SMILES): Nc1ncnc2c1c(-c1ccco1)cn2[C@@H]1O[C@H](CO)[C@@H](O)[C@H]1O
- IC50: 17.4 µM

Structure (SMILES): Nc1ncnc2c1c(-c1cccs1)cn2[C@@H]1O[C@H](CO)[C@@H](O)[C@H]1O
- IC50: 4.73 µM

Structure (SMILES): O=c1[nH]cnc2c1c(-c1cccs1)cn2[C@@H]1O[C@H](CO)[C@@H](O)[C@H]1O
- IC50: > 100 µM

Structure (SMILES): Cc1nc(N)c2c(I)cn([C@@H]3O[C@H](CO)[C@@H](O)[C@H]3O)c2n1
- IC50: > 100 µM

Structure (SMILES): COc1nc(N)nc2c1c(-c1ccco1)cn2[C@@H]1O[C@H](CO)[C@@H](O)[C@H]1O
- IC50: > 100 µM

Structure (SMILES): COc1nc(N)nc2c1c(-c1ccoc1)cn2[C@@H]1O[C@H](CO)[C@@H](O)[C@H]1O
- IC50: > 100 µM

Structure (SMILES): COc1nc(N)nc2c1c(-c1cccs1)cn2[C@@H]1O[C@H](CO)[C@@H](O)[C@H]1O
- IC50: > 100 µM

Structure (SMILES): COc1nc(N)nc2c1c(-c1ccsc1)cn2[C@@H]1O[C@H](CO)[C@@H](O)[C@H]1O
- IC50: > 100 µM

Structure (SMILES): COc1nc(N)nc2c1c(-c1ccccc1)cn2[C@@H]1O[C@H](CO)[C@@H](O)[C@H]1O
- IC50: > 100 µM

Structure (SMILES): COc1nc(N)nc2c1c(-c1cc3ccccc3o1)cn2[C@@H]1O[C@H](CO)[C@@H](O)[C@H]1O
- IC50: > 100 µM

Structure (SMILES): C#Cc1cn([C@@H]2O[C@H](CO)[C@@H](O)[C@H]2O)c2nc(N)nc(OC)c12
- IC50: > 100 µM

Structure (SMILES): Nc1nc2c(c(-c3ccco3)cn2[C@@H]2O[C@H](CO)[C@@H](O)[C@H]2O)c(=O)[nH]1
- IC50: > 100 µM

Structure (SMILES): Nc1nc2c(c(-c3ccoc3)cn2[C@@H]2O[C@H](CO)[C@@H](O)[C@H]2O)c(=O)[nH]1
- IC50: > 100 µM

Structure (SMILES): Nc1nc2c(c(-c3cccs3)cn2[C@@H]2O[C@H](CO)[C@@H](O)[C@H]2O)c(=O)[nH]1
- IC50: > 100 µM

Structure (SMILES): Nc1nc2c(c(-c3ccsc3)cn2[C@@H]2O[C@H](CO)[C@@H](O)[C@H]2O)c(=O)[nH]1
- IC50: > 100 µM

Structure (SMILES): Nc1nc2c(c(-c3ccccc3)cn2[C@@H]2O[C@H](CO)[C@@H](O)[C@H]2O)c(=O)[nH]1
- IC50: > 100 µM

Structure (SMILES): Nc1nc2c(c(-c3cc4ccccc4o3)cn2[C@@H]2O[C@H](CO)[C@@H](O)[C@H]2O)c(=O)[nH]1
- IC50: > 100 µM

Structure (SMILES): O=c1[nH]cnc2c1c(-c1ccco1)cn2[C@@H]1O[C@H](CO)[C@@H](O)[C@H]1O
- IC50: > 100 µM

Structure (SMILES): O=c1[nH]cnc2c1c(-c1ccoc1)cn2[C@@H]1O[C@H](CO)[C@@H](O)[C@H]1O
- IC50: > 100 µM

Structure (SMILES): O=c1[nH]cnc2c1c(-c1ccsc1)cn2[C@@H]1O[C@H](CO)[C@@H](O)[C@H]1O
- IC50: > 100 µM

Structure (SMILES): O=c1[nH]cnc2c1c(-c1ccccc1)cn2[C@@H]1O[C@H](CO)[C@@H](O)[C@H]1O
- IC50: > 100 µM

Structure (SMILES): O=c1[nH]cnc2c1c(-c1cc3ccccc3o1)cn2[C@@H]1O[C@H](CO)[C@@H](O)[C@H]1O
- IC50: > 100 µM

Structure (SMILES): Nc1nc(N)c2c(-c3ccco3)cn([C@@H]3O[C@H](CO)[C@@H](O)[C@H]3O)c2n1
- IC50: 84 µM

Structure (SMILES): Nc1nc(N)c2c(-c3ccoc3)cn([C@@H]3O[C@H](CO)[C@@H](O)[C@H]3O)c2n1
- IC50: 71.5 µM

Structure (SMILES): Nc1nc(N)c2c(-c3cccs3)cn([C@@H]3O[C@H](CO)[C@@H](O)[C@H]3O)c2n1
- IC50: 2.44 µM

Structure (SMILES): Nc1nc(N)c2c(-c3ccsc3)cn([C@@H]3O[C@H](CO)[C@@H](O)[C@H]3O)c2n1
- IC50: > 100 µM

Structure (SMILES): Nc1nc(N)c2c(-c3ccccc3)cn([C@@H]3O[C@H](CO)[C@@H](O)[C@H]3O)c2n1
- IC50: 8.53 µM

Structure (SMILES): Nc1nc(N)c2c(-c3cc4ccccc4o3)cn([C@@H]3O[C@H](CO)[C@@H](O)[C@H]3O)c2n1
- IC50: 24.6 µM

Structure (SMILES): Cc1nc(N)c2c(-c3ccco3)cn([C@@H]3O[C@H](CO)[C@@H](O)[C@H]3O)c2n1
- IC50: > 100 µM

Structure (SMILES): Cc1nc(N)c2c(-c3ccoc3)cn([C@@H]3O[C@H](CO)[C@@H](O)[C@H]3O)c2n1
- IC50: > 100 µM

Structure (SMILES): Cc1nc(N)c2c(-c3cccs3)cn([C@@H]3O[C@H](CO)[C@@H](O)[C@H]3O)c2n1
- IC50: 82.7 µM

Structure (SMILES): Cc1nc(N)c2c(-c3ccsc3)cn([C@@H]3O[C@H](CO)[C@@H](O)[C@H]3O)c2n1
- IC50: > 100 µM

Structure (SMILES): Cc1nc(N)c2c(-c3ccccc3)cn([C@@H]3O[C@H](CO)[C@@H](O)[C@H]3O)c2n1
- IC50: > 100 µM

Structure (SMILES): Cc1nc(N)c2c(-c3cc4ccccc4o3)cn([C@@H]3O[C@H](CO)[C@@H](O)[C@H]3O)c2n1
- IC50: > 100 µM

Structure (SMILES): C#Cc1cn([C@@H]2O[C@H](CO)[C@@H](O)[C@H]2O)c2nc(C)nc(N)c12
- IC50: > 100 µM

Structure (SMILES): Cc1nc(N)c2ccn([C@@H]3O[C@H](CO)[C@@H](O)[C@H]3O)c2n1
- IC50: > 100 µM

Structure (SMILES): CNc1ncnc2c1ccn2[C@@H]1O[C@H](CO)[C@@H](O)[C@H]1O
- IC50: 87.1 µM

Structure (SMILES): CN(C)c1ncnc2c1c(-c1ccco1)cn2[C@@H]1O[C@H](CO)[C@@H](O)[C@H]1O
- IC50: > 100 µM

Structure (SMILES): CN(C)c1ncnc2c1c(-c1ccoc1)cn2[C@@H]1O[C@H](CO)[C@@H](O)[C@H]1O
- IC50: > 100 µM

Structure (SMILES): CN(C)c1ncnc2c1c(-c1cccs1)cn2[C@@H]1O[C@H](CO)[C@@H](O)[C@H]1O
- IC50: > 100 µM

Structure (SMILES): CN(C)c1ncnc2c1c(-c1ccsc1)cn2[C@@H]1O[C@H](CO)[C@@H](O)[C@H]1O
- IC50: > 100 µM

Structure (SMILES): CN(C)c1ncnc2c1c(-c1ccccc1)cn2[C@@H]1O[C@H](CO)[C@@H](O)[C@H]1O
- IC50: > 100 µM

Structure (SMILES): CN(C)c1ncnc2c1c(-c1cc3ccccc3o1)cn2[C@@H]1O[C@H](CO)[C@@H](O)[C@H]1O
- IC50: > 100 µM

Structure (SMILES): C#Cc1cn([C@@H]2O[C@H](CO)[C@@H](O)[C@H]2O)c2ncnc(N(C)C)c12
- IC50: > 100 µM

Structure (SMILES): CN(C)c1ncnc2c1ccn2[C@@H]1O[C@H](CO)[C@@H](O)[C@H]1O
- IC50: > 100 µM

Structure (SMILES): CN(C)c1ncnc2c1c(I)cn2[C@@H]1O[C@H](CO)[C@@H](O)[C@H]1O
- IC50: > 100 µM

Structure (SMILES): Cc1ncnc2c1c(-c1ccco1)cn2[C@@H]1O[C@H](CO)[C@@H](O)[C@H]1O
- IC50: 38.9 µM

Structure (SMILES): Cc1ncnc2c1c(-c1ccoc1)cn2[C@@H]1O[C@H](CO)[C@@H](O)[C@H]1O
- IC50: 9.3 µM

Structure (SMILES): Cc1ncnc2c1c(-c1cccs1)cn2[C@@H]1O[C@H](CO)[C@@H](O)[C@H]1O
- IC50: 14 µM

Structure (SMILES): Cc1ncnc2c1c(-c1ccsc1)cn2[C@@H]1O[C@H](CO)[C@@H](O)[C@H]1O
- IC50: 18.5 µM

Structure (SMILES): Cc1ncnc2c1c(-c1ccccc1)cn2[C@@H]1O[C@H](CO)[C@@H](O)[C@H]1O
- IC50: 26.5 µM

Structure (SMILES): Cc1ncnc2c1c(-c1cc3ccccc3o1)cn2[C@@H]1O[C@H](CO)[C@@H](O)[C@H]1O
- IC50: 2.1 µM

Structure (SMILES): C#Cc1cn([C@@H]2O[C@H](CO)[C@@H](O)[C@H]2O)c2ncnc(C)c12
- IC50: 42.9 µM

Structure (SMILES): Cc1ncnc2c1c(I)cn2[C@@H]1O[C@H](CO)[C@@H](O)[C@H]1O
- IC50: 51.4 µM

Structure (SMILES): Cc1ncnc2c1c(Br)cn2[C@@H]1O[C@H](CO)[C@@H](O)[C@H]1O
- IC50: 20.8 µM

Structure (SMILES): COc1ncnc2c1c(-c1ccccc1)cn2[C@@H]1O[C@H](CO)[C@@H](O)[C@H]1O
- IC50: > 100 µM

Structure (SMILES): COc1ncnc2c1c(-c1cc3ccccc3o1)cn2[C@@H]1O[C@H](CO)[C@@H](O)[C@H]1O
- IC50: 73.5 µM

Structure (SMILES): C#Cc1cn([C@@H]2O[C@H](CO)[C@@H](O)[C@H]2O)c2ncnc(OC)c12
- IC50: > 100 µM

Structure (SMILES): COc1ncnc2c1c(I)cn2[C@@H]1O[C@H](CO)[C@@H](O)[C@H]1O
- IC50: > 100 µM

Structure (SMILES): CSc1ncnc2c1c(-c1ccco1)cn2[C@@H]1O[C@H](CO)[C@@H](O)[C@H]1O
- IC50: > 100 µM

Structure (SMILES): CSc1ncnc2c1c(-c1ccoc1)cn2[C@@H]1O[C@H](CO)[C@@H](O)[C@H]1O
- IC50: > 100 µM

Structure (SMILES): CSc1ncnc2c1c(-c1cccs1)cn2[C@@H]1O[C@H](CO)[C@@H](O)[C@H]1O
- IC50: > 100 µM

Structure (SMILES): CSc1ncnc2c1c(-c1ccsc1)cn2[C@@H]1O[C@H](CO)[C@@H](O)[C@H]1O
- IC50: 98.6 µM

Structure (SMILES): CSc1ncnc2c1c(-c1ccccc1)cn2[C@@H]1O[C@H](CO)[C@@H](O)[C@H]1O
- IC50: > 100 µM

Structure (SMILES): CSc1ncnc2c1c(-c1cc3ccccc3o1)cn2[C@@H]1O[C@H](CO)[C@@H](O)[C@H]1O
- IC50: > 100 µM

Structure (SMILES): C#Cc1cn([C@@H]2O[C@H](CO)[C@@H](O)[C@H]2O)c2ncnc(SC)c12
- IC50: > 100 µM

Structure (SMILES): CSc1ncnc2c1ccn2[C@@H]1O[C@H](CO)[C@@H](O)[C@H]1O
- IC50: 96.8 µM

Structure (SMILES): CSc1ncnc2c1c(I)cn2[C@@H]1O[C@H](CO)[C@@H](O)[C@H]1O
- IC50: 87.1 µM

Structure (SMILES): CNc1ncnc2c1c(-c1ccco1)cn2[C@@H]1O[C@H](CO)[C@@H](O)[C@H]1O
- IC50: > 100 µM

Structure (SMILES): CNc1ncnc2c1c(-c1ccoc1)cn2[C@@H]1O[C@H](CO)[C@@H](O)[C@H]1O
- IC50: > 100 µM

Structure (SMILES): CNc1ncnc2c1c(-c1cccs1)cn2[C@@H]1O[C@H](CO)[C@@H](O)[C@H]1O
- IC50: > 100 µM

Structure (SMILES): CNc1ncnc2c1c(-c1ccsc1)cn2[C@@H]1O[C@H](CO)[C@@H](O)[C@H]1O
- IC50: > 100 µM

Structure (SMILES): CNc1ncnc2c1c(-c1ccccc1)cn2[C@@H]1O[C@H](CO)[C@@H](O)[C@H]1O
- IC50: > 100 µM

Structure (SMILES): CNc1ncnc2c1c(-c1cc3ccccc3o1)cn2[C@@H]1O[C@H](CO)[C@@H](O)[C@H]1O
- IC50: > 100 µM

Structure (SMILES): C#Cc1cn([C@@H]2O[C@H](CO)[C@@H](O)[C@H]2O)c2ncnc(NC)c12
- IC50: > 100 µM

Structure (SMILES): COc1ncnc2c1c(-c1ccco1)cn2[C@@H]1O[C@H](CO)[C@@H](O)[C@H]1O
- IC50: > 100 µM

Structure (SMILES): COc1ncnc2c1c(-c1ccoc1)cn2[C@@H]1O[C@H](CO)[C@@H](O)[C@H]1O
- IC50: > 100 µM

Structure (SMILES): COc1ncnc2c1c(-c1cccs1)cn2[C@@H]1O[C@H](CO)[C@@H](O)[C@H]1O
- IC50: > 100 µM

Structure (SMILES): COc1ncnc2c1c(-c1ccsc1)cn2[C@@H]1O[C@H](CO)[C@@H](O)[C@H]1O
- IC50: > 100 µM

Structure (SMILES): CNc1ncnc2c1c(I)cn2[C@@H]1O[C@H](CO)[C@@H](O)[C@H]1O
- IC50: 99.9 µM

Structure (SMILES): COc1ncnc2c1ccn2[C@@H]1O[C@H](CO)[C@@H](O)[C@H]1O
- IC50: > 100 µM
